Laboratory results taken from patent publication US8586622B2, “Laminin-332 product on stimulating composition” (Shiseido Company, Ltd., priority 2009, dated 2013).
Read-outs that look alike come from different tables or passages of the source.

How the values were obtained:
[1] = system: laminin-332 production in HaCaT cells; assay: Laminin-332 concentration in HaCaT culture supernatant after addition of various amino acids, Example 2; format: cell-based, human; settings: for stimulation of the production of laminin-332 (in words) / concentration of laminin-332 in the culture supernatant: HaCaT cells; for stimulation of the production of laminin-332 (in words): 10 nM, 100 nM, 1000 nM; for concentration of laminin-332 in the culture supernatant: 24 hours, negative control 1.5-1.8 ng/mL; for effect on stimulating production of laminin-332 (conclusion in words): Examples 1 and 2, KC and HaCaT cells
Protocol: (§1) After completing the cell culture, culture medium was collected and centrifuged at 3000 rpm for five minutes. Concentration of laminin-332 in the supernatant was measured by ELISA (Amano, S., et al., J. Immunol. Methods, 224:161 (1999)). The ELISA used was sandwich type which utilizes biotinylated conjugate of BM165, i.e., a monoclonal antibody against α (alpha) 3 chain of laminin-5, and 6F12, i.e., a monoclonal antibody against β (beta)3 chain of laminin-5, and detection was carried out by utilizing avidin D labeled with a horseradish peroxidase (Vector Laboratories, Catalogue No. A-2004). PBS was used as a control.
Cell culture was carried out in the same manner as the Example 1 by using HaCaT cells. After that, the medium was switched to the standard medium added with amino acids such as L- or D-alanine, L- or D-hydroxyproline, L- or D-aspartic acid, L- or D-asparagine, L- or D-proline, or L- or D-serine with the concentration of 10 nM, 100 nM, or 1000 nM, and cultured for 24 hours. The standard medium to which no amino acid had been added was used as a negative control. […] The production amount of laminin-332 was measured in the same manner as the Example 1.
The vertical line of the graph in FIG. 7 represents the concentrations (ng/mL) of laminin-332 in the culture supernatant in each well. The error bars for each experimental condition indicate the standard deviations of experimentally measured values obtained by repeating the experiment four times under the identical condition.

[2] = system: laminin-332 production in HaCaT cells; assay: Laminin-332 production in HaCaT cells (sandwich ELISA, relative to cell number), Example 1; format: cell-based, human; settings: 1 μM; for relative value of laminin-332 concentration compared to the number of cells: 24 hours, negative control 0.04
Protocol: as §1
The vertical line of the graph in FIG. 5 represents, the relative values of laminin-332 concentration compared to the number of cells that are present in culture supernatant in each well. The error bars for each experimental condition indicate the standard deviations of experimentally measured values obtained by repeating the experiment three times under the identical condition.

HaCaT cells = assay: Quantification of number of viable HaCaT cells (alamarBlue); settings: for fluorescence intensity of alamarBlue: 1 μM
Protocol: (§2) Human epidermal-derived HaCaT cells (H. Hans, et al., Experimental Cell Research, 239:399 (1998)) and human keratinocyte-derived KC cells (Sanko Junyaku Co., Ltd., manufacturer: LONZA Walkersville Inc.) were used. The cells were inoculated to a 24-well plate to have 4×10^4 cells per well. The cells were then cultured for 24 hours in a medium for cell culture (D-MEM (1 g/L glucose), manufactured by Wako Pure Chemical Industries, Ltd.) to which 0.1% bovine serum albumin (BSA) is supplemented (hereinafter, referred to as a “standard medium”) in a 5% CO2 and saturated water vapor atmosphere at 37° C. (degrees Celsius).
(§3) D-hydroxyproline used in this example was 4-cis-D-hydroxyproline.
(§4) After collecting the culture medium, the cells were washed with PBS and added with alamarBlue (trademark: Biosource International, Inc.) to have final concentration of 10%. Two hours later, according to the methods by Ahmed S. A. et al., (J. Immunol. Method., 170, 211-224 (1994)) and the instructions provided by the manufacturer, fluorescent intensity of the alamarBlue solution was measured with excitation wavelength of 544 nm and emission wavelength of 590 nm.

[3] = system: laminin-332 production in KC cells; assay: Laminin-332 production in KC cells (sandwich ELISA of culture supernatant, relative to cell number); format: cell-based, human; settings: 1 μM; for relative value of laminin-332 concentration compared to the number of cells: 24 hours, negative control 0.35
Protocol: as §2, §3
PBS was used as a control.
as §4

KC cells = assay: Quantification of number of viable KC cells (alamarBlue); format: cell-based, human; settings: for relative fluorescence intensity of alamarBlue: 1 μM, 24 hours, negative control 50; for cytotoxicity against KC cells: alamarBlue, no significant difference to negative control by Tukey-Kramer's test
Protocol: as §2, §3, §4

[4] = HaCaT cells, 24 hours, negative control 300
[5] = HaCaT cells, alamarBlue, no significant difference to negative control by Tukey-Kramer's test

Compound	stimulation of the production of laminin-332 (in words) [1]	concentration of laminin-332 in the culture supernatant ([1]; amino acid 10 nM) [ng/mL]	concentration of laminin-332 in the culture supernatant ([1]; amino acid 100 nM) [ng/mL]	concentration of laminin-332 in the culture supernatant ([1]; amino acid 1000 nM) [ng/mL]	relative value of laminin-332 concentration compared to the number of cells [2]	effect on stimulating production of laminin-332 (conclusion in words) [1]	fluorescence intensity of alamarBlue (HaCaT cells; [4])	cytotoxicity for HaCaT cells (HaCaT cells; [5])	stimulation of laminin-332 production in HaCaT cells (in words) ([2]; p less than 1% vs negative control by Scheffe's F test)	relative value of laminin-332 concentration compared to the number of cells [3]	stimulation of laminin-332 production in KC cells (in words) ([3]; p less than 1% vs negative control by Tukey-Kramer's test)	relative fluorescence intensity of alamarBlue (KC cells)	cytotoxicity against KC cells (KC cells)	cytotoxicity for HaCaT cells (HaCaT cells)	fluorescence intensity of alamarBlue (HaCaT cells; human, 24 h)
N[C@H](CO)C(=O)O [D-serine]	do not stimulate the production of laminin-332	1.8	1.8	1.8											
O=C(O)[C@@H]1CCCN1 [L-proline]	do not stimulate the production of laminin-332	1.8	1.9	1.9											
O=C(O)[C@H]1C[C@@H](O)CN1 (relative stereo) [D-hydroxyproline, 4-cis-D-hydroxyproline]		1.5	3.3	4.4	0.065	effect on stimulating production of laminin-332 was observed	280	no cytotoxicity							
NC(=O)C[C@H](N)C(=O)O [L-asparagine]	do not stimulate the production of laminin-332	1.6	1.5	1.6											
C[C@@H](N)C(=O)O [D-alanine]		1.7	3.4	4.8	0.11	effect on stimulating production of laminin-332 was observed			stimulated production of laminin-332	0.50	stimulated production of laminin-332	45	no cytotoxicity	no cytotoxicity	250
O=C(O)[C@H]1CCCN1 [D-proline]	do not stimulate the production of laminin-332	2.0	1.9	1.9											
N[C@@H](CC(=O)O)C(=O)O [L-aspartic acid]	do not stimulate the production of laminin-332	1.8	1.8	2.0											
O=C(O)[C@@H]1C[C@@H](O)CN1 [L-hydroxyproline]		1.5	2.3	2.7	0.05		280	no cytotoxicity							
N[C@H](CC(=O)O)C(=O)O [D-aspartic acid]	do not stimulate the production of laminin-332	1.9	1.9	1.7											
NC(=O)C[C@@H](N)C(=O)O [D-asparagine]	do not stimulate the production of laminin-332	1.5	1.5	1.5											
C[C@H](N)C(=O)O [L-alanine]		1.7	2.3	2.8	0.07					0.40		40	no cytotoxicity	no cytotoxicity	250
N[C@@H](CO)C(=O)O [L-serine]	do not stimulate the production of laminin-332	1.8	1.9	1.9											
